Test results: patent US9597407B2, “Targeted antimicrobial moieties” (C3 Jian, Inc., priority 2009, dated 2017)
“Also recorded” adds a separate entry of the source.

B1: PF-745 (peptide)
chain 1: ANSQNSLFSNRSSFKSIFDKKSNITTNATTPNSNIIIN
chain 2: B1 chain 1
modifications: Peptide with targeting and/or antimicrobial activity
B2: PF-749 (peptide)
chain 1: GVNKWWEEHNKAKLWKNVKGKFLEGEGEEEDDE
chain 2: B2 chain 1
modifications: Peptide with targeting and/or antimicrobial activity
B3: PF-761 (peptide)
chain 1: SKFELVNYASGCSCGADCKCASETECKCASKK
chain 2: B3 chain 1
modifications: Peptide with targeting and/or antimicrobial activity
B4: PF-763 (peptide)
chain 1: GIWMARNYFHRSSIRKVYVESDKEYERVHPMQKIQYEGNYKSQ
chain 2: B4 chain 1
modifications: Peptide with targeting and/or antimicrobial activity

Tests used:
microorganisms [1] = test: Peptide activities: binding, antimicrobial, growth or phenotype altering (Table 8)
From the text: In certain embodiments, peptides described herein can have multiple activities. Thus for example, a peptide can have both binding/targeting activity and antimicrobial activity. Such peptides can be used, e.g., in a chimeric construct, for any or all of these properties. Thus, for example, a peptide designated “B” in Table 8 can be used as a targeting peptide. If it is also designated G or M it can also be used for antimicrobial activity.

bacteria = test: Binding of targeting peptides to microorganisms (Table 3); details: preferably 1x PBS; for Target(s) (microorganisms bound by the targeting peptide) / Target(s) (microorganism bound by the targeting peptide): peptide binding in aqueous buffers that varied depending on peptide solubility
microorganisms [2] = test: Morphology, biofilm and growth disruption by peptides (Table 5); assay type: cell-based; set-up: key: A: Peptide aggregates; B: Less hyphal formation; Clumps; Diffuse clumps and small polyps; F: Diffuse growth; H: Thin; I: Growth inhibition; Microcolony formation; Rippled; Small polyps; Thick; W: Halo formation on top, microlonies on bottom
From the text: In certain embodiments peptides that induce alterations in phenotype or other biological activities can also be used as antimicrobial effector moieties.

| Molecule | Activities (microorganisms [1]) | Target(s) (microorganisms bound by the targeting peptide) (bacteria) | Organism, effect (morphology, biofilm and growth disruption) (microorganisms [2]; MRSA) | Organism, effect (morphology, biofilm and growth disruption) (microorganisms [2]; S. epidermidis) | Organism, effect (morphology, biofilm and growth disruption) (microorganisms [2]; S. pneumoniae) | Target(s) (microorganism bound by the targeting peptide) (bacteria) | other results |
| --- | --- | --- | --- | --- | --- | --- | --- |
| PF-061 (GYNSYKAVQDVKTHSEEQRVTAKK; Peptide with targeting and/or antimicrobial activity) | G B |  |  |  |  |  | Target(s) (bacteria; microorganism the targeting peptide binds, binding in aqueous buffers that varied with peptide solubility): S. epidermidis; also recorded: S. pneumoniae; Organism, effect (microorganisms [2]; B. subtilis): B. subtilis (R); Organism, effect (microorganisms [2]; C. jejuni): C. jejuni (R); Organism, effect (microorganisms [2]; S. epidermidis): S. epidermidis (R); Organism, effect (microorganisms [2]; S. pneumoniae): S. pneumoniae (R) |
| PF-558 (ADAPPPLIVRYS; Peptide with targeting and/or antimicrobial activity) | G B | S. epidermidis; also recorded: E. coli; also recorded: C. albicans; also recorded: C. jeikeium; also recorded: C. jejuni | MRSA (C) | S. epidermidis (M) | S. pneumoniae (R) |  | Organism, effect (morphology, biofilm and growth disruption) (microorganisms [2]; B. subtilis): B. subtilis (D); Organism, effect (morphology, biofilm and growth disruption) (microorganisms [2]; C. jejuni): C. jejuni (H) |
| PF-445 (ASMTKRLKLAMSKV; Peptide with targeting and/or antimicrobial activity) | G B | M. luteus; also recorded: S. pneumoniae; also recorded: C. jeikeium |  |  | S. pneumoniae (M) |  |  |
| PF-456 (TCVKPRTIN; Peptide with targeting and/or antimicrobial activity) | G B | C. albicans and MRSA and E. faecalis and C. jeikeium and C. jejuni |  |  |  |  | Organism, effect (morphology, biofilm and growth disruption) (microorganisms [2]; C. jejuni): C. jejuni (A); Organism, effect (morphology, biofilm and growth disruption) (microorganisms [2]; E. faecalis): E. faecalis (A) |
| PF-576 (AYSGELPEPLVRKMSKEQVRSVMGK; Peptide with targeting and/or antimicrobial activity) | G B | M. luteus; also recorded: P. mirabilis; also recorded: E. coli; also recorded: P. aeruginosa; also recorded: C. albicans; also recorded: S. pneumoniae | MRSA (R) | S. epidermidis (A) | S. pneumoniae (C) |  | Organism, effect (morphology, biofilm and growth disruption) (microorganisms [2]; C. jejuni): C. jejuni (C); Organism, effect (morphology, biofilm and growth disruption) (microorganisms [2]; E. coli): E. coli (A) |
| PF-C065 (DEERYSDSYFLKEKVFYLILALFLILFHQKYLYFLEIITI; Peptide with targeting and/or antimicrobial activity) | G B |  |  |  |  | A. naeslundii; also recorded: F. nucleatum; also recorded: P. gingivalis; also recorded: S. mutans | Organism, effect (morphology, biofilm and growth disruption) (microorganisms [2]; F. nucleatum): F. nucleatum (T) |
| PF-457 (INKYHHIA; Peptide with targeting and/or antimicrobial activity) | G B | C. albicans; also recorded: S. pneumoniae; also recorded: E. faecalis; also recorded: C. jeikeium |  |  | S. pneumoniae (M) |  |  |
| PF-484 (HKKDIRKQVFKN; Peptide with targeting and/or antimicrobial activity) | G B | S. epidermidis; also recorded: M. luteus; also recorded: P. mirabilis; also recorded: E. coli; also recorded: E. faecalis; also recorded: C. jeikeium; also recorded: C. jejuni |  |  |  |  | Organism, effect (morphology, biofilm and growth disruption) (microorganisms [2]; E. faecalis): E. faecalis (A) |
| B1 | G B |  | MRSA (C) |  | S. pneumoniae (C) | S. epidermidis; also recorded: M. luteus; also recorded: C. albicans | Organism, effect (morphology, biofilm and growth disruption) (microorganisms [2]; M. luteus): M. luteus (C); Organism, effect (morphology, biofilm and growth disruption) (microorganisms [2]; S. mutans): S. mutans (D) |
| B2 | G B |  |  |  | S. pneumoniae (H) | S. epidermidis; also recorded: M. luteus; also recorded: E. coli; also recorded: P. aeruginosa; also recorded: C. albicans; also recorded: S. pneumoniae; also recorded: C. jeikeium |  |
| B3 | G B |  | MRSA (D) | S. epidermidis (C) | S. pneumoniae (C) | S. epidermidis and M. luteus and P. mirabilis and P. aeruginosa and C. albicans and MRSA and S. pneumoniae and E. faecalis | Organism, effect (morphology, biofilm and growth disruption) (microorganisms [2]; E. coli): E. coli (C); Organism, effect (morphology, biofilm and growth disruption) (microorganisms [2]; M. luteus): M. luteus (C); Organism, effect (morphology, biofilm and growth disruption) (microorganisms [2]; P. aeruginosa): P. aeruginosa (C); Organism, effect (morphology, biofilm and growth disruption) (microorganisms [2]; S. mutans): S. mutans (D) |
| B4 | G B |  | MRSA (D) | S. epidermidis (M) | S. pneumoniae (C) | S. epidermidis and M. luteus and E. coli and C. albicans and MRSA and S. pneumoniae and E. faecalis | Organism, effect (morphology, biofilm and growth disruption) (microorganisms [2]; M. luteus): M. luteus (C) |
